{
  "source": "patent US6908912B2",
  "about": "“Pyrithione biocides enhanced by zinc metal ions and organic amines” (priority 1999, dated 2005)",
  "key": {"[1]": {"assay": "Solubility and stability of concentrated mixtures of sodium pyrithione, ZnCl2 and organic amines (Example 55)", "conditions": "for solubility and stability of mixture after 24 and 72 hours: mixtures of sodium pyrithione, ZnCl2 and the named amine"}, "[2]": {"tested_on": "Klebsiella pnenmoniae bacteria", "conditions": "cited from earlier work"}, "[3]": {"tested_on": "Fusarium sp. and Cephalosporium sp. metalworking fluid field isolates", "assay": "Efficacy against fungi in diluted (1:20) metalworking fluids, flask test (Examples 1-40)", "format": "cell-based"}, "[4]": {"tested_on": "Fusarium sp and Cephalosporium sp.", "assay": "Culture tube test with formaldehyde releasing biocide, viable fungal counts (Example 52)", "format": "cell-based, fungi"}, "[5]": {"tested_on": "Fusarium sp and Cephalosporium sp.", "assay": "Prevention of fungal contamination of metalworking fluid, repeated challenge (Example 53)", "format": "cell-based, fungi"}, "[6]": {"assay": "Blue discoloration of metalworking fluids in the presence of iron ions, visual inspection (Example 54)", "format": "physicochemical"}, "[7]": {"tested_on": "Pseudomonas aeruginosa 9027, Escherichia coli 8739, Pseudomonas fluorescens 12201, Pseudomonas rubescens 12202, and Pseudomonas putida", "format": "cell-based, bacteria"}, "[8]": {"tested_on": "Pseudomonas aeruginosa, Escherichia coli, Pseudomonas fluorescens, Pseudomonas rubescens, and Pseudomonas putida", "format": "cell-based, bacteria"}, "[9]": {"conditions": "Semi-Synthetic Fluid diluted 1:20, final 100 PPM NaPT, 21 PPM ZnCl2, 600 PPM amine or 1000 PPM Mixture as applicable"}, "[10]": {"conditions": "Soluble Oil diluted 1:20, final 100 PPM NaPT, 21 PPM ZnCl2, 600 PPM amine or 1000 PPM Mixture as applicable"}, "[11]": {"conditions": "Synthetic Fluid diluted 1:20, final 100 PPM NaPT, 21 PPM ZnCl2, 600 PPM amine or 1000 PPM Mixture as applicable"}, "[12]": {"conditions": "Semi-synthetic MWF, Triazine 196 PPM ai TZ"}, "[13]": {"conditions": "Semi-synthetic MWF, Triazine 393 PPM ai TZ"}, "[14]": {"conditions": "Semi-synthetic MWF, Triazine 785 PPM ai TZ"}},
  "note": "Values joined by “and” are separate entries in the source; they are usually repeats but may differ in a detail not shown here. Equal entries are not always repeated. Where two headings read alike, the source gives them in different places.",
  "data": [
    {"compound": "NCCNCCN", "note": "[Diethylenetriamine]", "values": [
      {"measurement": "Appearance at 24 Hrs", "setting": "[1]", "value": "S"},
      {"measurement": "Appearance at 72 Hrs", "setting": "[1]", "value": "S"}
    ]},
    {"compound": "NCCOCCO", "note": "[2(2-Aminoethoxy)ethanol]", "values": [
      {"measurement": "solubility and stability of mixture after 24 and 72 hours", "setting": "[1]; room temperature", "value": "precipitates"}
    ]},
    {"compound": "On1ccccc1=S", "note": "[pyrithione, 1-hydroxy-2-pyridinethione]", "values": [
      {"measurement": "activity against Klebsiella pnenmoniae bacteria", "setting": "[2]", "value": "favorable enhancement"}
    ]},
    {"compound": "1-amino-2-propanol [Mixture 1A2P]", "values": [
      {"measurement": "Fungi/ml Day 1", "setting": "[3]; [9]", "value": "4.7 × 10^4 Fungi/ml"},
      {"measurement": "Fungi/ml Day 4", "setting": "[3]; [9]", "value": "5.0 × 10^4 Fungi/ml"},
      {"measurement": "Fungi/ml Day 1", "setting": "[3]; [10]", "value": "4.6 × 10^4 Fungi/ml"},
      {"measurement": "Fungi/ml Day 4", "setting": "[3]; [10]", "value": "2.5 × 10^4 Fungi/ml"},
      {"measurement": "Fungi/ml Day 1", "setting": "[3]; [11]", "value": "5.5 × 10^4 Fungi/ml"},
      {"measurement": "Fungi/ml Day 4", "setting": "[3]; [11]", "value": "3.6 × 10^4 Fungi/ml"}
    ]},
    {"compound": "sodium pyrithione [NaPT]", "values": [
      {"measurement": "Fungi/ml Day 1", "setting": "[3]", "value": "5.1 × 10^4 Fungi/ml and 7.0 × 10^4 Fungi/ml and 5.7 × 10^4 Fungi/ml"},
      {"measurement": "Fungi/ml Day 3", "setting": "[4]", "value": "7.7 × 10^4 Fungi/ml and 4.1 × 10^4 Fungi/ml"},
      {"measurement": "Fungi/ml Week 4", "setting": "[5]", "value": "8.9 × 10^4 Fungi/ml"},
      {"measurement": "Fungi/ml Week 9", "setting": "[5]", "value": "5.6 × 10^4 Fungi/ml"},
      {"measurement": "Initial Blue Color", "setting": "[6]", "value": "light and dark and blue"},
      {"measurement": "Bacteria/ml Day 1", "setting": "[7]", "value": "4.0 × 10^5 Bacteria/ml and 5.2 × 10^6 Bacteria/ml and 4.3 × 10^6 Bacteria/ml"},
      {"measurement": "Bacteria/ml Day 4", "setting": "[7]", "value": "3.0 × 10^5 Bacteria/ml and 3.7 × 10^7 Bacteria/ml and 6.0 × 10^6 Bacteria/ml"},
      {"measurement": "Bacteria/ml Week 4", "setting": "[8]", "value": "3.2 × 10^6 Bacteria/ml"},
      {"measurement": "Bacteria/ml Week 9", "setting": "[8]", "value": "6.1 × 10^6 Bacteria/ml"}
    ]},
    {"compound": "CCC(N)(CO)CO", "note": "[2-Amino-2-ethyl-1,3-propanediol]", "values": [
      {"measurement": "solubility and stability of mixture after 24 and 72 hours", "setting": "[1]; room temperature", "value": "precipitates"}
    ]},
    {"compound": "COCCCN", "note": "[3-methoxypropylamine]", "values": [
      {"measurement": "solubility and stability of mixture after 24 and 72 hours", "setting": "[1]; room temperature", "value": "soluble mixtures after 24 hours but not after 72 hours"}
    ]},
    {"compound": "CC(O)CNCC(C)O", "note": "(stereo not drawn) [Diisopropanolamine]", "values": [
      {"measurement": "solubility and stability of mixture after 24 and 72 hours", "setting": "[1]; room temperature", "value": "precipitates"}
    ]},
    {"compound": "NCCCN", "note": "[1,3-Diaminopropane]", "values": [
      {"measurement": "Appearance at 24 Hrs", "setting": "[1]", "value": "S"},
      {"measurement": "Appearance at 72 Hrs", "setting": "[1]", "value": "S"}
    ]},
    {"compound": "CCCNCCO", "note": "[Propylethanolamine]", "values": [
      {"measurement": "Appearance at 24 Hrs", "setting": "[1]; mixture of NaPT 10.00, ZnCl2 1.74, organic amine(s) 60.50, water 27.76 weight %, room temperature", "value": "S"}
    ]},
    {"compound": "NCCO", "note": "[MEA, monoethanolamine]", "values": [
      {"measurement": "Fungi/ml Day 1", "setting": "[3]; [9]", "value": "4.3 × 10^4 Fungi/ml"},
      {"measurement": "Fungi/ml Day 4", "setting": "[3]; [9]", "value": "7.0 × 10^4 Fungi/ml"},
      {"measurement": "Fungi/ml Day 1", "setting": "[3]; [10]", "value": "2.9 × 10^4 Fungi/ml"},
      {"measurement": "Fungi/ml Day 4", "setting": "[3]; [10]", "value": "1.0 × 10^4 Fungi/ml"},
      {"measurement": "Fungi/ml Day 1", "setting": "[3]; [11]", "value": "4.7 × 10^4 Fungi/ml"},
      {"measurement": "Fungi/ml Day 4", "setting": "[3]; [11]", "value": "3.6 × 10^4 Fungi/ml"}
    ]},
    {"compound": "OCCN1CN(CCO)CN(CCO)C1", "note": "[Triazine, hexahydro-1,3,5-tris(2-hydroxyethyl)-s-triazine]", "values": [
      {"measurement": "Fungi/ml Day 3", "setting": "[4]; Soluble oil MWF, Triazine 49 PPM ai TZ", "value": "3.0 × 10^3 Fungi/ml"},
      {"measurement": "Fungi/ml Day 3", "setting": "[4]; Soluble oil MWF, Triazine 98 PPM ai TZ", "value": "1.1 × 10^3 Fungi/ml"},
      {"measurement": "Fungi/ml Day 3", "setting": "[4]; Soluble oil MWF, Triazine 196 PPM ai TZ", "value": 100, "unit": "Fungi/ml"},
      {"measurement": "Fungi/ml Day 3", "setting": "[4]; Soluble oil MWF, Triazine 393 PPM ai TZ", "value": 0, "unit": "Fungi/ml"},
      {"measurement": "Fungi/ml Day 3", "setting": "[4]; Soluble oil MWF, Triazine 589 PPM ai TZ", "value": 0, "unit": "Fungi/ml"},
      {"measurement": "Fungi/ml Day 3", "setting": "[4]; Soluble oil MWF, Triazine 785 PPM ai TZ", "value": 0, "unit": "Fungi/ml"},
      {"measurement": "Fungi/ml Week 4", "setting": "[5]; [12]", "value": "3.6 × 10^4 Fungi/ml"},
      {"measurement": "Fungi/ml Week 9", "setting": "[5]; [12]", "value": "6.2 × 10^4 Fungi/ml"},
      {"measurement": "Fungi/ml Week 4", "setting": "[5]; [13]", "value": 0, "unit": "Fungi/ml"},
      {"measurement": "Fungi/ml Week 9", "setting": "[5]; [13]", "value": 70, "unit": "Fungi/ml"},
      {"measurement": "Fungi/ml Week 4", "setting": "[5]; [14]", "value": 0, "unit": "Fungi/ml"},
      {"measurement": "Fungi/ml Week 9", "setting": "[5]; [14]", "value": 0, "unit": "Fungi/ml"}
    ]},
    {"compound": "zinc chloride [ZnCl2]", "values": [
      {"measurement": "Fungi/ml Day 1", "setting": "[3]", "value": "7.7 × 10^4 Fungi/ml and 5.9 × 10^4 Fungi/ml and 5.2 × 10^4 Fungi/ml"},
      {"measurement": "Fungi/ml Day 4", "setting": "[3]", "value": "4.3 × 10^4 Fungi/ml and 3.2 × 10^4 Fungi/ml and 3.1 × 10^4 Fungi/ml"}
    ]}
  ]
}
